ChEMBL document CHEMBL5150075 (J Med Chem, 2022)
Activity calls are given as the source filed them. The calls are words filed in the database; no cut-off is given here.

Key:
Bos taurus = organism: Bos taurus; experiment: Inhibition of bovine brain tubulin polymerization measured every 30 secs by absorbance based analysis; settings: dose 1-10 µM, time 30.0 sec, DDE = dose-dependent effect
Tubulin (Homo sapiens) [1] = target: T1, Tubulin (Homo sapiens) (UniProt P68371+Q9H4B7+P0DPH7+P68366+Q13509+Q71U36+P04350+Q3ZCM7+P07437+P68363+Q9BQE3+Q6PEY2+Q13885+Q9BVA1+Q9BUF5); experiment: Disruption of microtubule network in human DU-145 cells assessed as cell shrinkage at 0.1 uM incubated for 16 hrs by Hoechst staining based confocal microscopy analysis
Tubulin (Homo sapiens) [2] = target: T1, Tubulin (Homo sapiens); experiment: Disruption of microtubule network in human DU-145 cells assessed as reduction in alpha tubulin expression by Western blot analysis; format: cell-based; settings: dose 0.03-0.3 µM
Tubulin (Homo sapiens) [3] = target: T1, Tubulin (Homo sapiens); experiment: Inhibition of [3H]colchicine binding to tubulin (unknown origin) at 1 uM incubated for 2 hrs by TopCount scintillation counting method relative to control; format: protein-complex assay
DU-145 [4] = experiment: Induction of G2/M phase cell cycle arrest in human DU-145 cells assessed as increase in cyclin B1 expression at 0.03 to 0.3 uM measured after 12 hrs by Western blot analysis; format: functional, cell-based; settings: dose 0.03-0.3 µM
DU-145 [5] = experiment: Induction of apoptosis in human DU-145 cells assessed as early apoptotic cells at 0.03 uM incubated for 48 hrs by Annexin V-FITC/PI staining based flow cytometry analysis (reference value: 1.97%); format: functional
DU-145 [6] = experiment: Induction of apoptosis in human DU-145 cells assessed as late apoptotic cells at 0.03 uM incubated for 48 hrs by Annexin V-FITC/PI staining based flow cytometry analysis (reference value: 2.05%); format: functional
DU-145 [7] = experiment: Induction of apoptosis in human DU-145 cells assessed as dead cells at 0.03 uM incubated for 48 hrs by Annexin V-FITC/PI staining based flow cytometry analysis (reference value: 1.05%); format: functional
DU-145 [8] = experiment: Induction of apoptosis in human DU-145 cells assessed as live cells at 0.1 uM incubated for 48 hrs by Annexin V-FITC/PI staining based flow cytometry analysis (reference value: 94.94%); format: functional
DU-145 [9] = experiment: Induction of apoptosis in human DU-145 cells assessed as dead cells at 0.1 uM incubated for 48 hrs by Annexin V-FITC/PI staining based flow cytometry analysis (reference value: 1.05%); format: functional
DU-145 [10] = experiment: Induction of apoptosis in human DU-145 cells assessed as early apoptotic cells at 0.3 uM incubated for 48 hrs by Annexin V-FITC/PI staining based flow cytometry analysis (reference value: 1.97%); format: functional
DU-145 [11] = experiment: Induction of apoptosis in human DU-145 cells assessed as late apoptotic cells at 0.3 uM incubated for 48 hrs by Annexin V-FITC/PI staining based flow cytometry analysis (reference value: 2.05%); format: functional
DU-145 [12] = experiment: Induction of apoptosis in human DU-145 cells assessed as dead cells at 0.3 uM incubated for 48 hrs by Annexin V-FITC/PI staining based flow cytometry analysis (reference value: 1.05%); format: functional
DU-145 [13] = experiment: Antiproliferative activity against human DU-145 cells assessed as inhibition of cell growth incubated for 24 hrs by real-time cell analysis; format: functional, cell-based; settings: DU-145, 24 h
DU-145 [14] = experiment: Antiproliferative activity against human DU-145 cells assessed as inhibition of cell growth incubated for 96 hrs by real-time cell analysis; format: functional, cell-based; settings: DU-145, 96 h
B16-F10 [15] = experiment: Antiproliferative activity against mouse B16-F10 cells assessed as inhibition of cell growth incubated for 72 hrs by MTT assay; format: functional, cell-based; settings: B16-F10, 72 h
HUVEC = experiment: Anti-angiogenesis activity against HUVEC cells assessed as inhibition of cell growth incubated for 72 hrs by MTT assay; format: functional, cell-based; settings: Homo sapiens
A549 [16] = experiment: Antiproliferative activity against paclitaxel-resistant human A549 cells assessed as inhibition of cell growth incubated for 72 hrs by MTT assay; format: functional, cell-based; settings: A549, 72 h
[17] = Resistance index, ratio of IC50 for antiproliferative activity against paclitaxel-resistant human A549 cells to IC50 for antiproliferative activity against human A549 cells; format: functional
[18] = Resistance index, ratio of IC50 for antiproliferative activity against paclitaxel-resistant human MCF7R cells to IC50 for antiproliferative activity against human MCF7 cells; format: functional
[19] = Stability in mouse liver microsomes assessed as half life incubated in presence of NADPH by LC-MS/MS analysis; format: ADME, Microsome
[20] = Stability in rat liver microsomes assessed as half life incubated in presence of NADPH by LC-MS/MS analysis; format: ADME, Microsome
[21] = Stability in dog liver microsomes assessed as half life incubated in presence of NADPH by LC-MS/MS analysis; format: ADME, Canis lupus familiaris, Microsome
[22] = Stability in human liver microsomes assessed as half life incubated in presence of NADPH by LC-MS/MS analysis; format: ADME, Microsome
[23] = Oral bioavailability in Kunming mouse at 20 mg/kg by LC-MS/MS analysis; format: ADME, organism-based; settings: in vivo
DU-145 [24] = experiment: Antitumor activity against human DU-145 cells xenografted in BALB/c nude mouse assessed as tumor growth inhibition at 5 mg/kg, po administered once daily and measured twice a week relative to control; format: functional; settings: read-out: TGI
NCI-H1299 = experiment: Antitumor activity against human NCI-H1299 cells xenografted in BALB/c nude mouse assessed as suppression of tumor growth at 10 mg/kg, po administered once daily and measured twice a week relative to control; format: functional
[25] = Toxicity in BALB/c nude mouse xenografted with human NCI-H1299 cells assessed as reduction in body weight at 10 to 20 mg/kg, po administered once daily and measured twice a week; format: organism-based; settings: in vivo, dose 10-20 mg/kg
B16-F10 [26] = experiment: Antitumor activity against mouse B16-F10 cells implanted in C57BL/6 mouse assessed as tumor growth inhibition at 20 mg/kg, po administered once daily and measured twice a week relative to control; format: functional; settings: read-out: TGI
A549 [27] = experiment: Antitumor activity against paclitaxel-resistant human A549 cells xenografted in BALB/c nude mouse assessed as tumor growth inhibition at 20 mg/kg, po administered once daily and measured twice a week relative to control; format: functional; settings: read-out: TGI
[28] = Mutagenicity in Salmonella typhimurium TA-97 at 0.5 to 500 ug per plate incubated for 72 hrs in presence or absence of S9 fraction by Ames test; format: toxicity, Salmonella enterica subsp. enterica serovar Typhimurium; settings: in vivo, dose 0.5-500 µg
[29] = Mutagenicity in Salmonella typhimurium TA-98 at 0.5 to 500 ug per plate incubated for 72 hrs in presence or absence of S9 fraction by Ames test; format: toxicity, Salmonella enterica subsp. enterica serovar Typhimurium; settings: in vivo, dose 0.5-500 µg
[30] = Toxicity in specific pathogen-free Kunming mouse assessed as reduction in body weight at 10 mg/kg, po administered once daily and measured for 7 days; format: organism-based; settings: in vivo, 168 h, time 7 day
[31] = Toxicity in specific pathogen-free Kunming mouse assessed as pathological changes in kidney at 10 mg/kg, po administered once daily and measured after 7 days by hematoxylin and eosin staining based analysis; format: organism-based; settings: in vivo, 168 h, time 7 day
[32] = Toxicity in specific pathogen-free Kunming mouse assessed as pathological changes in colon tissues at 10 mg/kg, po administered once daily and measured after 7 days by hematoxylin and eosin staining based analysis; format: organism-based; settings: in vivo, 168 h, time 7 day
HepG2 = experiment: cells; settings: Homo sapiens, HepG2, 72 h

Cc1ccc(S(=O)(=O)Nc2cc(C(=O)NCc3ccc(C)nc3)ccc2C)cc1
inhibition (Bos taurus): Dde
Activity (Tubulin (Homo sapiens) [1]): Active
Activity (Tubulin (Homo sapiens) [2]): Active
inhibition (Tubulin (Homo sapiens) [3]): 75%
Activity (DU-145 [4]): Active
Activity (DU-145 [5]): 13.66%
Activity (DU-145 [6]): 9.5%
Activity (DU-145 [7]): 2.95%
Activity (DU-145 [8]): 43.52%
Activity (DU-145 [9]): 5.08%
Activity (DU-145 [10]): 26.3%
Activity (DU-145 [11]): 30.32%
Activity (DU-145 [12]): 5.51%
IC50 (DU-145 [13]): 10 nM
IC50 (DU-145 [14]): 4 nM
IC50 (B16-F10 [15]): 2 nM
IC50 (HUVEC): 32 nM
IC50 (A549 [16]): 30 nM
Ratio IC50 [17]: 1.2
Ratio IC50 [18]: 2.48
half-life [19]: 26 min
half-life [20]: 2.3 min
half-life [21]: 132 min
half-life [22]: 24 min
bioavailability [23]: 48.2%
inhibition in vivo at 5 mg/kg (DU-145 [24]): 37.4%
Activity (NCI-H1299): 48.8%
Activity [25]: Toxic
inhibition in vivo at 20 mg/kg (B16-F10 [26]): 70.6%
inhibition in vivo at 20 mg/kg (A549 [27]): 74.8%
Activity [28]: Non-Toxic
Activity [29]: Non-Toxic
Activity [30]: Non-Toxic
Activity [31]: Non-Toxic
Activity [32]: Non-Toxic
IC50 (HepG2): 3 nM
